From US20220332695A1, “UREA DERIVATIVES AS CB1 ALLOSTERIC MODULATORS” (RTI INTERNATIONAL, priority 2019, published 2022) come the findings set out here.

In one data set the target is T1, mouse CB1R (Mus musculus, UniProt P47746).
T1 construct: membranes (10 μg protein) from either ICR mouse cerebellum mice; from tissue; host or cells: cerebellum membranes of ICR mice
As to the kind of experiment: [35S]GTPγS binding assay in mouse cerebellum membranes. Type of data set: biochemical. (Binding of GTPγS marks nucleotide exchange on a G protein.)

The nature of data set [1]: Metabolic stability in rat liver microsomes. The data set is classed as in vitro ADME. How it is done:
Metabolic stability assessment: Compounds were incubated with rat liver microsomes at 37° C. for a total of 45 minutes. The reaction was performed at pH 7.4 in 100 mM potassium phosphate buffer containing 0.5 mg/mL of rat liver microsomal protein. Phase I metabolism was assessed by adding NADPH to a final concentration of 1 mM and collecting samples at time points 0, 5, 15, 30 and 45 minutes. All collected samples were quenched 1:1 with ice-cold stop solution (1 μM labetalol and 1 μM glyburide in acetonitrile) and centrifuged to remove precipitated protein. Resulting supernatants were further diluted 1:4 with acetonitrile:water (1:1). Samples were analyzed by LC/MS/MS and calculations for half-life, and in-vitro clearance were accomplished using Microsoft Excel (2007).

Data set [2] can be described thus: Kinetic solubility assessment. As to conditions: phosphate buffer, 2 hours room temperature. Type of data set: physicochemical. How it is done:
The solution was agitated on a VX-2500 multi-tube vortexer (VWR International, Radnor, Pa., United States of America) for 2 hours at room temperature. Following agitation, the sample was filtrated on a glass-fiber filter (1 μm) and the eluate was diluted 400-fold with a mixture of acetonitrile: water (1:1). On each experimental occasion, nicardipine and imipramine were assessed as reference compounds for low and high solubility, respectively. All samples were assessed in triplicate and analyzed by LC-MS/MS using electrospray ionization against standards prepared in the same matrix.

Data set [3] concerns cocaine-seeking behavior in rats. Briefly: Cocaine-induced reinstatement of extinguished cocaine-seeking behavior. Type of data set: in vivo, male Sprague-Dawley rats. As to conditions: rat, 10 mg/kg i.p. pretreatment. How it is done: In both graphs, the effect of treatment with vehicle (unfilled bars) is shown as a control. *p<0.05.
Adult male Sprague-Dawley rats (Harlan, Indianapolis, Ind., United States of America) weighing 280-300 g were used in the study. Animals were housed individually on a 12/12 hr light/dark cycle (behavioral experiments were conducted during the light period) with free access to water and food except during experimental sessions.
The reinstatement procedure has been previously described. See Jing et al., Drug Alcohol Depend. 2014, 143, 251-256; and Thorn et al., Neuropsychopharmacology 2014, 39, 2309-2316. Briefly, rats were surgically implanted with a chronic indwelling jugular catheter. […]
Data analyses: Data are expressed as mean ±S.E.M. Differences in active lever responding between the last extinction session and reinstatement session were determined with paired t tests (within subjects comparison). The effects of compounds 2 on reinstatement were analyzed by a one-way analysis of variance (ANOVA) followed by post hoc Bonferroni's test (between subjects comparison). The effects of compounds 34 on reinstatement was analyzed by Student's t test. […]

The next data set deals with P-gp (MDR1). As to the kind of experiment: Bidirectional MDCK-MDR1 permeability assay. Type of data set: in vitro ADME. As to conditions: dog, pH 7.4; MDCK-MDR1, 10 μM test article. How it is done:
(§1) Permeability Assessment. Bidirectional MDCK-MDR1 permeability assay was performed by Paraza Pharma Inc. (Montreal, Canada). MDCK-mdr1 cells at passage 5 were seeded onto permeable polycarbonate supports in 12-well Costar Transwell plates and allowed to grow and differentiate for 3 days. On day 3, culture medium (DMEM supplemented with 10% FBS) was removed from both sides of the transwell inserts and cells were rinsed with warm HBSS. After the rinse step, the chambers were filled with warm transport buffer (HBSS containing 10 mM HEPES, 0.25% BSA, pH 7.4) and the plates were incubated at 37° C. for 30 min prior to TEER (Trans Epithelial Electric Resistance) measurements.
(§2) The buffer in the donor chamber (apical side for A-to-B assay, basolateral side for B-to-A assay) was removed and replaced with the working solution (10 μM test article in transport buffer). The plates were then placed at 37° C. under light agitation. At designated time points (30, 60 and 90 min), an aliquot of transport buffer from the receiver chamber was removed and replenished with fresh transport buffer. Samples were quenched with ice-cold ACN containing internal standard and then centrifuged to pellet protein. Resulting supernatants are further diluted with 50/50 ACN/H2O (H2O only for Atenolol) and submitted for LC-MS/MS analysis. Reported apparent permeability (Papp) values were calculated from single determination.
(§3) Atenolol and propranolol were tested as low and […] permeability references.
(§4) The apparent permeability (Papp, measured in cm/s) of a compound is determined according to the following formula […]: […]
(§5) where dQ/dt is the net rate of appearance in the receiver compartment; A is the area of the Transwell measured in cm^2 (1.12 cm^2); Ci is the initial concentration of compound added to the donor chamber; and 60 is the conversion factor for minute to second.

Data set [4] has as its target T2, hCB1R (Homo sapiens, UniProt P21554). As to the kind of experiment: Calcium mobilization assay, antagonist mode against CP55,940. The data set is classed as cell-based. Set-up: expressed in transfected cells; host or cells: CHO-RD-HGA16 cells (parental line from Molecular Devices).
Procedure: Calcium Mobilization Assay: CHO-RD-HGA16 cells (Molecular Devices, San Jose, Calif., United States of America) stably expressing the human CB1 receptor were plated into 96-well black-walled assay plates at 25,000 cells/well in 100 pL of Ham's F12 (supplemented with 10% fetal bovine serum, 100 units of penicillin/streptomycin, and 100 µg/mL Normocin) and incubated overnight at 37° C., 5% CO2. Calcium 5 dye (Molecular Devices, San Jose, Calif., United States of America) was reconstituted according to the manufacturer's instructions. The reconstituted dye was diluted 1:40 in prewarmed (37° C.) assay buffer (1x HBSS, 20 mM HEPES, 2.5 mM probenecid, pH 7.4 at 37° C.). Growth medium was removed, and the cells were gently washed with 100 pL of prewarmed (37° C.) assay buffer. The cells were incubated for 45 min at 37° C., 5% CO2 in 200 pL of the diluted Calcium 5 dye solution. […] Serial dilutions of the test compounds were prepared at 10x the desired final concentration in 2.25% BSA/4.5% DMSO/4.5% EtOH/assay buffer. After the dye loading incubation period, the cells were pretreated with 25 pL of the test compound serial dilutions and incubated for 15 min at 37° C. After the pretreatment incubation period, the plate was read with a FLIPR Tetra (Molecular Devices, San Jose, Calif., United States of America). Calcium-mediated changes in fluorescence were monitored every 1 s over a 90 s time period, with the Tetra adding 25 pL of the CP55,940 EC80 concentration at the 10s time point (excitation/emission: 485/525 nm). Relative fluorescence units (RFU) were plotted against the log of compound concentrations. For agonist screens, the above procedure was followed except that cells were pretreated with 2.25% BSA/4.5% DMSO/4.5% EtOH/assay buffer and the Tetra added single concentration dilutions of the test compounds prepared at 10x the desired final concentration in 0.25% BSA/0.5% DMSO/0.5% EtOH/assay buffer. Test compound RFUs were compared to the CP55,940 Emax RFUs to generate % Emax values.
Data Analysis: For calcium mobilization experiments, data were fit to a three-parameter logistic curve to generate IC50 values (GraphPad Prism 6.0, Graphpad Software, San Diego, Calif., United States of America).
For data set [5], the system named is locomotion in rats. As to conditions: rat, in vivo, ip, 10 mg/kg.
Source text: (§6) Locomotion is presented as total distance (in millimeters (mm)) versus time (in minutes) after administration. The effects of treatment with vehicle is also shown as a control.
The target in data set [6] is T2, hCB1R. As to the kind of experiment: Real-time BRET CAMYEL cAMP assay in HEK293 cells expressing human CB1. The data set is classed as cell-based. Set-up: expressed in transfected cells; host or cells: HEK293 cells stably transfected with human CB1, transiently transfected with pcDNA3L-His-CAMYEL sensor. The note with it: [CP] = 100 nM; forskolin-stimulated cAMP. Background: Bioluminescence resonance energy transfer reports proximity on the nanometre scale.
Procedure: cAMP Assay: The cAMP assay was performed as previously described. […] Briefly, forskolin (FSK)-stimulated cyclic adenosine monophosphate (cAMP) production was measured in real-time using a transfected bioluminescence resonance energy transfer (BRET) cAMP sensor. The plasmid encodes a cAMP binding domain (Epac1) flanked by yellow fluorescent protein (YFP) and Renilla Luciferase (RLuc) assay, the latter of which can oxidize coelenterazine H and produce a photon as a byproduct. When cAMP is bound to the Epac1 domain, it separates RLuc and YFP so only Rluc emits a photon at a wavelength of 460 nm. When cAMP is not bound, RLuc can excite YFP, emitting light at wavelength 535 nm. A plate reader measures both wavelengths and their ratio, 460/535, is calculated to quantify cAMP levels where increases in the ratio indicate increases in cAMP. Human Embryonic Kidney 293 (HEK293) cells stably transfected with the human cannabinoid type-1 (C131) were maintained at 37° C. at 5% CO2 and seeded in 100 mM dishes for transfection. The next day, cells were given fresh growth media and transfected with 5 pg of pcDNA3L-His-CAMYEL using linear polyethyleneimine (25 kDa, Polysciences, Warrington, Pennsylvania, United States of America) in 1:6 DNA:PEI (ATCC, Manassas, Virginia, United States of America) ratio. The next day, cells were lifted using 1 mM EDTA in PBS and spun down at 200xg for 5 min. The supernatant was removed, and cells were resuspended in growth media and plated on poly-D-lysine (Sigma Aldrich, St. Louis, Missouri, United States of America) coated white 96 well plates at 60,000 cells per well, filling 2 columns of 8 wells each per plate, i.e. 8 samples in duplicate per plate (Perkin Elmer, Waltham, Massachusetts,
United States of America). The following day, media was removed, cells were rinsed with PBS and buffers/reagents/drugs added as following: At 0 min, 175 of stimulation buffer (5 mg/ml bovine serum albumin in HBSS including Ca^2+ and Mg^2+); at 10 min, 25 μL of allosteric modulators added; at 15 min: 25 μL coelenterazine added (5 μM final); at 25 min, 25 μL of forskolin (10 final) with or without CP55,940 (100 nM final) added. […] Ratio of 460/535 is calculated for each time point and plotted across time and area under the curve analysis is conducted for each replicate and averaged by condition/day where each day serves as an independent experiment. Data were calculated as %FSK using the formula [(sample-basal)/(forskolin-basal)×100]. IC50 values were calculated from these normalized concentration-response data using Prism 6 (Graphpad Software, San Diego, Calif., United States of America) using 3 parameter non-linear regression. Data are plotted as mean of at least N=3 independent experiments either normalized to forskolin (concentration response data) or the calculated 460/535 BRET ratio (time course data).

Data set [7] has as its target T2, hCB1R. As to the kind of experiment: Intrinsic activity: basal [35S]GTPγS binding in the absence of CP55,940. Type of data set: biochemical. As to conditions: up to 10 μM.
The target in data set [8] is T2, hCB1R. As to the kind of experiment: [35S]GTPγS binding assay in HEK cells stably expressing human CB1R. As to conditions: [CP] = 100 nM, mean (95% confidence interval), read-out: hCB1R [35S]GTPγS binding assay IC50. The data set is classed as biochemical. Set-up: expressed in transfected cells; host or cells: HEK (HEK293) cells, membranes.
Procedure: (§7) [^35S]GTPγS Binding Assay: For receptor signaling, membranes (10 μg protein) from either ICR mouse cerebellum mice (6-8 weeks old; Enviga
(§8) Non-specific binding was determined by adding 30 μM unlabeled GTPyS. Concentration response curves for allosteric modulators were conducted in the presence of CP55,940 (100 nM or 1 μM) to calculate 1050 values.
(§9) For [^35S]GTPyS experiments, data were normalized to maximal CP55,940 (100 nM) stimulation in the absence of test compound (i.e., vehicle=100%).
In another data set the test system is MDCK-MDR1 cells. Briefly: Bidirectional MDCK-MDR1 permeability assay. Type of data set: in vitro ADME. How it is done: as §1, §2, §3, §4, §5
The subject of data set [9] is locomotion in rats. As to the kind of experiment: Locomotion in rats. As to conditions: rat, 10 mg/kg i.p.
Source text: as §6
Where [10] appears, read: mouse cerebellum membrane, [CP] = 100 nM, read-out: mCB1R GTPγS IC50.
[11] abbreviates: CHO cells expressing human CB1R, against CP55,940 (100 nM), mean ± SEM, read-out: hCB1R Calcium assay IC50.

≈ marks a conversion by molar mass, not a printed value. Where “and” joins values, the source holds several entries; their conditions need not be identical. Equal entries are not always repeated. Entries after “also recorded” stand apart in the source; their conditions may differ. Where two headings read alike, the source gives them in different places.

T1 sequence (P47746 whole entry): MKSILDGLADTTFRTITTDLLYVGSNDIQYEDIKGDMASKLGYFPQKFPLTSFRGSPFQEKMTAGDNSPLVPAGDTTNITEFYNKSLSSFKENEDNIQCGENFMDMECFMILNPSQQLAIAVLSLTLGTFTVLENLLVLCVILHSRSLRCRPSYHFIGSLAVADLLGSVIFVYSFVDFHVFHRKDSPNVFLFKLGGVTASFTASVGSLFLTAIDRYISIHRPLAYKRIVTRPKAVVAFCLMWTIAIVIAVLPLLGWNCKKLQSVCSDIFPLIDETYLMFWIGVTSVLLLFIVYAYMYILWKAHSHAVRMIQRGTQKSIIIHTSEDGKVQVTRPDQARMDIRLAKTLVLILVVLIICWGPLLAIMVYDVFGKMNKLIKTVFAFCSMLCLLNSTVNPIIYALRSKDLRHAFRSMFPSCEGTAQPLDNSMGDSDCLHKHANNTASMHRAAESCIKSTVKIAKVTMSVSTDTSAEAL
T2 sequence (P21554 whole entry): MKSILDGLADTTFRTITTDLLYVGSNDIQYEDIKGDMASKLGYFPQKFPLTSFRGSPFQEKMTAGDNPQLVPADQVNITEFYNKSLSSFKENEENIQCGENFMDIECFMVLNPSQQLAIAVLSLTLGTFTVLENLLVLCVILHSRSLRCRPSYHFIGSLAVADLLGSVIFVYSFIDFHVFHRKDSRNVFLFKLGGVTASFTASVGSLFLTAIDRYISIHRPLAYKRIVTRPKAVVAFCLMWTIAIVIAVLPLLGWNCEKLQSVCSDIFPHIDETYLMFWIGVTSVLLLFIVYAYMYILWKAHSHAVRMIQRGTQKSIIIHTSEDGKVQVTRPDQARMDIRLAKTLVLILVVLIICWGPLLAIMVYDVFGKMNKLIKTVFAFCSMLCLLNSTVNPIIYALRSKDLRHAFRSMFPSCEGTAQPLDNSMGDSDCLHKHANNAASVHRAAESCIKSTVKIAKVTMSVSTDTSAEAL
Procedure for mouse CB1R: as §7, §8, §9
Select compounds were evaluated in the CP55,940-induced [^35S]GTPyS binding assays using mouse cerebellum membrane at two CP55,940 concentrations, 100 nM and 1μM.

Usually IC50 stands for the concentration at which inhibition is half-maximal. For orientation: half-life means the time in which the quantity being followed falls by half. The solubility is the dissolved amount per volume that the medium holds. A word on the Papp A→B: it is the apparent permeability from the apical to the basolateral side of a cell layer. A lower Papp A→B goes with poor permeation. One may read the Papp B→A as how fast a substance crosses the layer from the basolateral side. In the case of `O=C(NCCc1cccc(Cl)c1)Nc1ccc(Cl)cc1` [Compound 68, 3-(4-Chlorophenyl)1-[2-(3-chlorophenyl)ethyl]urea], the IC50 at mouse CB1R (Tables 4-6, CP55,940 concentration not stated, mean (95% confidence interval), read-out: mCB1R [35S]GTPγS binding assay IC50) was 561 nM. Further, in [1] (pH 7.4, NADPH, mean ± SD, read-out: Half-life), the half-life stood at 9.6 min. The microsomal CLint in [1] (pH 7.4, mean ± SD, read-out: Clearance) is 144 ± 8.4 µL/min/mg. The molecule also had a solubility at 2 h in data set [2] (aqueous buffer, kinetic from dmso stock) below 0.5 µM. Also, in data set [3], the “effect on cocaine-induced reinstatement of cocaine-seeking behavior” value is on record as “good in vivo efficacy; also recorded: attenuated cocaine-induced reinstatement of cocaine-seeking behavior”. In the data set on P-gp (MDR1), the apical-to-basolateral permeability (Papp A→B) at 90 min, 10 µM is above 15 ×10⁻⁶ cm/s and the Papp B→A at 90 min, 10 µM is above 15 ×10⁻⁶ cm/s. For the same molecule, on hCB1R [4], the IC50 was determined as 30 ± 4 nM. Moreover, the effect on locomotion entry with locomotion in rats [5] is “did not affect locomotion”.
Regarding `O=C(Nc1ccc(Cl)cc1)Nc1ccc(-c2ccncc2)s1` [Compound 35, 1-(4-Chlorophenyl)-3-[5-(pyridin-4-yl)thiophen-2-yl]urea], the IC50 at mouse CB1R (setting [10]) is 287 nM and 204 nM; at mouse CB1R (mouse cerebellum membrane, [CP] = 1 uM, read-out: mCB1R GTPγS IC50) it was 129 nM and 120 nM; against hCB1R [6] it was 1800 nM; on hCB1R [4] (setting [11]), 79 ± 13 nM; on hCB1R [8], 298 nM. The “inverse agonism (in words)” value on hCB1R [7] was “some degree of inverse agonism”.
With `O=C(Nc1ccc(Cl)cc1)Nc1ccc(-c2ccccc2)s1` [Compound 11, 1-(4-Chlorophenyl)-3-(5-phenylthiophen-2-yl)urea], the IC50 on mouse CB1R (setting [10]) was 63 nM; against hCB1R [6], 1760 nM; at hCB1R [4] (setting [11]), 7 nM; at hCB1R [8], 524 nM. The same molecule had a Clearance in data set [1] (mean ± SD) of 22.2 ± 6.5 µL/min/mg. The solubility at 2 h in data set [2] worked out at 1.5 µM (≈ 0.493 µg/mL). In addition, the “inverse agonism (in words)” value on hCB1R [7] is listed as “some degree of inverse agonism; also recorded: very little inverse agonism”. In the data set with MDCK-MDR1 cells (MDCK-MDR1), the “Efflux BA/AB” value was determined as 0.7. Also, the “Papp A to B” value with MDCK-MDR1 cells (MDCK-MDR1, 10 μM test article) is reported as 1.6 ± 0.1 ×10^−6 cm/s. Moreover, the “Papp B to A” value in the data set with MDCK-MDR1 cells (MDCK-MDR1, 10 μM test article) is on record as 1.1 ± 0.4 ×10^−6 cm/s. For the same molecule, in the data set with locomotion in rats [9], the effect on locomotion result was “significant reduction of locomotion”.
